Patent US4063015A, “Garamine and derivatives thereof” (Schering Corporation, priority 1975, dated 1977)
Values after ≈ are worked out from the molar mass of the structure shown. Where two headings read alike, the source gives them in different places.

What was measured:
Bacillus subtilis = experiment: Minimal Inhibitory Concentration (MIC), Table I; type: cell-based
Description: (§1) In general, the novel pseudotrisaccharides of this invention (I) can be used to treat diverse types of susceptible microbial, viral, helmintic and protozoal infestations. These anthelmintic, antiprotozoal, antimicrobial and antiviral activities can readily be determined by standard in vivo and in vitro tests well known to the microbiologist and virologist. Of the compounds of this invention it can generally be stated that those 6'--NH2 or 6'--NHR4 compounds having a 2'--OH group are preferred for their activity against bacteria, trichomonas, amoeba, and helminths; those 2'--HN2 or 2'--NHR4 compounds having a 6'--OH group are preferred for their activity against bacteria, trichomona, amoeba, and helminths; those 2'--NH2 or 2'--NHR4 compounds having a 6'--NH2 or a 6'--NHR4 group are preferred for their antibacterial activity while those 2'--OH or 6'--OH compounds are preferred for their antitrichomonal activity.
(§2) Typical activity is illustrated by the following tables showing antibacterial and antiprotozoal activities.
(§3) Minimal Inhibitory Concentration (MIC) (mcg/ml)

[1] = test system: Escherichia coli (G resistant); experiment: Minimal Inhibitory Concentration (MIC), Table I; type: cell-based; conditions: garamycin resistant
Description: as §1, §2, §3

[2] = test system: Escherichia coli (N,K resistant); experiment: Minimal Inhibitory Concentration (MIC), Table I; type: cell-based; conditions: neomycin, kanamycin resistant
Description: as §1, §2, §3

[3] = test system: Escherichia coli (T resistant); experiment: Minimal Inhibitory Concentration (MIC), Table I; type: cell-based; conditions: tobramycin resistant
Description: as §1, §2, §3

[4] = test system: Klebsiella pneumoniae (G-resistant); experiment: Minimal Inhibitory Concentration (MIC), Table I; type: cell-based; conditions: garamycin resistant
Description: as §1, §2, §3

[5] = test system: Klebsiella pneumoniae (N,M resistant); experiment: Minimal Inhibitory Concentration (MIC), Table I; type: cell-based
Description: as §1, §2, §3

Proteus mirabilis = experiment: Minimal Inhibitory Concentration (MIC), Table I; type: cell-based
Description: as §1, §2, §3

Providence = experiment: Minimal Inhibitory Concentration (MIC), Table I; type: cell-based
Description: as §1, §2, §3

[6] = test system: Pseudomonas aeruginosa (G resistant); experiment: Minimal Inhibitory Concentration (MIC), Table I; type: cell-based; conditions: garamycin resistant
Description: as §1, §2, §3

Serratia marcessans = experiment: Minimal Inhibitory Concentration (MIC), Table I; type: cell-based
Description: as §1, §2, §3

Streptococcus pyogenes C = experiment: Minimal Inhibitory Concentration (MIC), Table I; type: cell-based
Description: as §1, §2, §3

Trichomonas Vaginalis = experiment: In vitro Activity Against Trichomonas Vaginalis, Table II; type: cell-based; conditions: for IC99: read-out: Minimal 99% suppression level; for MBC: read-out: Minimal Cidal Level
Description: as §1, §2
In vitro Activity Against Trichomonas Vaginalis
STS - Simplified Tripticase Serum Medium, Baltimore Biological
Laboratories, Baltimore, Maryland.

Escherichia coli = experiment: Minimal Inhibitory Concentration (MIC), Table I; type: cell-based
Description: as §1, §2, §3

Pseudomonas aeruginosa = experiment: Minimal Inhibitory Concentration (MIC), Table I; type: cell-based
Description: as §1, §2, §3

Salmonella typhimurium = experiment: Minimal Inhibitory Concentration (MIC), Table I; type: cell-based; conditions: Salmonella enterica
Description: as §1, §2, §3

Staphylococcus aureus = experiment: Minimal Inhibitory Concentration (MIC), Table I; type: cell-based
Description: as §1, §2, §3

pKa of garamine = type: physicochemical
Description: i. 1,3,3'-Tri-N-carbobenzoxygaramine (2.02 g.) was dissolved in methanol (100 ml.), and 10% palladium on carbon (1.0 g.) was added. The mixture was hydrogenated at 25° at 50 lbs/sq. in. for 16 hours, and the catalyst was filtered off, and washed with methanol. The filtrate was evaporated, and chromatographed on silica gel using the lower phase of a chloroform-methanol-concentrated ammonium hydroxide (2:1:1) system as the eluent. The fractions containing the garamine were concentrated in vacuo to small volume, and were then passed through Amberlite IR45 resin. The eluate was concentrated to small volume in vacuo, and the resulting solution was lyophilized to give garamine (750 mg.) (84%) as a colorless amorphous solid, m.p. 89°-99°, (Found: C, 48.31; H, 8.54; N, 12.87. C13 H27 N3 O6 requires: C, 48.60; H, 8.41; N, 13.08%), m/e 322 (M^+ +1), [α]D^26 + 135.4° (H2 O), pKa 8.5, .nu. max (nujol) 3300, 1060 cm.^-1, δ (D 2 O) 1.19 (3H, s, 4'--CH3), 2.51 (3H, s, 3'--NCH3), 2.57 (1H, d, J2',3' =10.5 Hz, H3'), 3.30 )1H, d, J5'a,5'e =12.5 Hz, H5'a), 3.79 (1H, dd, J2',3' =10.5 Hz, J1',2' =4 Hz, H2'), 4.03 (1H, d, J5'a,5'e =12.5 Hz, H5'e), 5.06 ppm. (1H, d, J1',2' =4 Hz, H1').

## CCN[C@@H]1C[C@H](O)[C@@H](CO)O[C@@H]1O[C@H]1[C@H](O)[C@@H](O[C@H]2OC[C@](C)(O)[C@H](NC)[C@H]2O)[C@H](N)C[C@@H]1N [3'-Deoxy-2'-N-ethylgentamicin X2]
Bacillus subtilis
  MIC: > 25 µg/mL
[1]
  MIC: > 25 µg/mL
[2]
  MIC: 17.5 µg/mL (≈ 35.4 µM)
[3]
  MIC: 3 µg/mL (≈ 6.07 µM)
[4]
  MIC: > 25 µg/mL
[5]
  MIC: 3 to 7.5 µg/mL (≈ 6.07 to 15.2 µM)
Proteus mirabilis
  MIC: > 25 µg/mL
Providence
  MIC: > 25 µg/mL
[6]
  MIC: > 25 µg/mL
Serratia marcessans
  MIC: 3 µg/mL (≈ 6.07 µM)
Streptococcus pyogenes C
  MIC: > 25 µg/mL
Trichomonas Vaginalis; 24 hr.
  IC99: < 2.5 µg/mL
  MBC: < 2.5 µg/mL
Trichomonas Vaginalis; 48 hr.
  IC99: < 2.5 µg/mL
  MBC: < 2.5 µg/mL

## CN[C@@H]1[C@@H](O)[C@@H](O[C@@H]2[C@@H](O)[C@H](O[C@H]3O[C@H](CN)[C@@H](O)C[C@H]3N)[C@@H](N)C[C@H]2N)OC[C@]1(C)O [3'-deoxy-JI-20A, O-2,6-Diamino-2,3,6-trideoxy-α-D-glucopyranosyl-(1→4)-garamine]
Bacillus subtilis
  MIC: < 0.05 µg/mL
[1]
  MIC: > 25 µg/mL
[2]
  MIC: 0.08 to 0.8 µg/mL (≈ 0.172 to 1.72 µM)
[3]
  MIC: 17.5 µg/mL (≈ 37.6 µM)
Escherichia coli
  MIC: 0.08 µg/mL (≈ 0.172 µM)
[5]
  MIC: 0.08 µg/mL (≈ 0.172 µM)
Proteus mirabilis
  MIC: 0.3 µg/mL (≈ 0.644 µM)
Providence
  MIC: > 25 µg/mL
[6]
  MIC: > 25 µg/mL
Pseudomonas aeruginosa
  MIC: 0.08 to 0.8 µg/mL (≈ 0.172 to 1.72 µM)
Salmonella typhimurium
  MIC: 0.75 µg/mL (≈ 1.61 µM)
Serratia marcessans
  MIC: 3 µg/mL (≈ 6.44 µM)
Staphylococcus aureus
  MIC: 0.08 to 0.3 µg/mL (≈ 0.172 to 0.644 µM)
Streptococcus pyogenes C
  MIC: 0.8 to 7.5 µg/mL (≈ 1.72 to 16.1 µM)

## CN[C@@H]1[C@@H](O)[C@@H](O[C@@H]2[C@@H](O)[C@H](O[C@H]3O[C@H](CO)[C@@H](O)[C@H](O)[C@H]3N)[C@@H](N)C[C@H]2N)OC[C@]1(C)O (stereo in doubt) [Gentamicin X2]
Bacillus subtilis
  MIC: 0.08 µg/mL (≈ 0.166 µM)
[1]
  MIC: > 25 µg/mL
[2]
  MIC: > 25 µg/mL
[3]
  MIC: > 25 µg/mL
Escherichia coli
  MIC: 0.8 to 3 µg/mL (≈ 1.66 to 6.22 µM)
[4]
  MIC: > 25 µg/mL
[5]
  MIC: > 25 µg/mL
Proteus mirabilis
  MIC: 3 µg/mL (≈ 6.22 µM)
Providence
  MIC: > 25 µg/mL
[6]
  MIC: > 25 µg/mL
Serratia marcessans
  MIC: > 25 µg/mL
Staphylococcus aureus
  MIC: 0.3 to 7.5 µg/mL (≈ 0.622 to 15.5 µM)
Streptococcus pyogenes C
  MIC: 1 to 17.5 µg/mL (≈ 2.07 to 36.3 µM)
Trichomonas Vaginalis; 24 hr.
  IC99: 10 µg/mL
  MBC: 10 µg/mL (≈ 20.7 µM)
Trichomonas Vaginalis; 48 hr.
  IC99: < 10 µg/mL
  MBC: 10 µg/mL (≈ 20.7 µM)

## CN[C@@H]1[C@@H](O)[C@@H](O[C@@H]2[C@@H](O)[C@H](O[C@H]3O[C@H](CO)[C@@H](O)C[C@H]3N)[C@@H](N)C[C@H]2N)OC[C@]1(C)O [3'-Deoxygentamicin X2]
Bacillus subtilis
  MIC: 0.03 µg/mL (≈ 0.0643 µM)
[1]
  MIC: > 25 µg/mL
[2]
  MIC: 3 to 7.5 µg/mL (≈ 6.43 to 16.1 µM)
[3]
  MIC: 17.5 µg/mL (≈ 37.5 µM)
Escherichia coli
  MIC: 3 to 7.5 µg/mL (≈ 6.43 to 16.1 µM)
[4]
  MIC: > 25 µg/mL
[5]
  MIC: 0.8 to 3 µg/mL (≈ 1.71 to 6.43 µM)
Proteus mirabilis
  MIC: 7.5 µg/mL (≈ 16.1 µM)
Providence
  MIC: > 25 µg/mL
[6]
  MIC: > 25 µg/mL
Pseudomonas aeruginosa
  MIC: 3 to 7.5 µg/mL (≈ 6.43 to 16.1 µM)
Salmonella typhimurium
  MIC: 7.5 µg/mL (≈ 16.1 µM)
Serratia marcessans
  MIC: 0.8 µg/mL (≈ 1.71 µM)
Staphylococcus aureus
  MIC: 0.5 to 7.5 µg/mL (≈ 1.07 to 16.1 µM)
Trichomonas Vaginalis; 24 hr.
  IC99: 10 µg/mL
  MBC: 10 µg/mL (≈ 21.4 µM)
Trichomonas Vaginalis; 48 hr.
  IC99: < 10 µg/mL
  MBC: 10 µg/mL (≈ 21.4 µM)

## CN[C@@H]1[C@@H](O)[C@@H](O[C@@H]2[C@@H](O)[C@H](O[C@H]3O[C@H](CO)[C@@H](O)[C@H](O)[C@H]3O)[C@@H](N)C[C@H]2N)OC[C@]1(C)O [O-α-D-Glucopyranosyl-(1→4)-garamine]
Trichomonas Vaginalis; 24 hr.
  IC99: 10 µg/mL
  MBC: 25 µg/mL (≈ 51.7 µM)
Trichomonas Vaginalis; 48 hr.
  IC99: < 10 µg/mL
  MBC: 10 µg/mL (≈ 20.7 µM)

## CN[C@@H]1[C@@H](O)[C@@H](O[C@@H]2[C@@H](O)[C@H](O[C@H]3O[C@H](CN)[C@@H](O)[C@H](O)[C@H]3N)[C@@H](N)C[C@H]2N)OC[C@]1(C)O [JI-20A]
Bacillus subtilis
  MIC: < 0.05 µg/mL
[1]
  MIC: > 25 µg/mL
[3]
  MIC: > 25 µg/mL
Escherichia coli
  MIC: 0.3 µg/mL (≈ 0.623 µM)
[4]
  MIC: > 25 µg/mL
[5]
  MIC: > 25 µg/mL
Proteus mirabilis
  MIC: 7.5 µg/mL (≈ 15.6 µM)
Providence
  MIC: > 25 µg/mL
[6]
  MIC: > 25 µg/mL
Pseudomonas aeruginosa
  MIC: 7.5 to 17.5 µg/mL (≈ 15.6 to 36.3 µM)
Salmonella typhimurium
  MIC: 0.3 µg/mL (≈ 0.623 µM)
Serratia marcessans
  MIC: > 25 µg/mL
Staphylococcus aureus
  MIC: 0.3 µg/mL (≈ 0.623 µM)
Streptococcus pyogenes C
  MIC: 17.5 µg/mL (≈ 36.3 µM)

## CNC[C@H]1O[C@H](O[C@H]2[C@H](O)[C@@H](O[C@H]3OC[C@](C)(O)[C@H](NC)[C@H]3O)[C@H](N)C[C@@H]2N)[C@H](O)C[C@@H]1O [3'-Deoxy-6'-N-methylgentamicin B]
Bacillus subtilis
  MIC: < 0.1 µg/mL
[2]
  MIC: 0.75 to 17.5 µg/mL (≈ 1.56 to 36.4 µM)
[3]
  MIC: > 25 µg/mL
Escherichia coli
  MIC: 0.1 to 0.75 µg/mL (≈ 0.208 to 1.56 µM)
[4]
  MIC: > 25 µg/mL
[5]
  MIC: 0.3 to 0.75 µg/mL (≈ 0.624 to 1.56 µM)
Proteus mirabilis
  MIC: 0.75 to 3 µg/mL (≈ 1.56 to 6.24 µM)
Providence
  MIC: 3 µg/mL (≈ 6.24 µM)
Pseudomonas aeruginosa
  MIC: 0.1 to 3 µg/mL (≈ 0.208 to 6.24 µM)
Serratia marcessans
  MIC: 3 µg/mL (≈ 6.24 µM)
Staphylococcus aureus
  MIC: 0.1 to 0.3 µg/mL (≈ 0.208 to 0.624 µM)
Streptococcus pyogenes C
  MIC: 0.1 to 17.5 µg/mL (≈ 0.208 to 36.4 µM)

## CCN[C@H]1[C@@H](O[C@H]2[C@H](O)[C@@H](O[C@H]3OC[C@](C)(O)[C@H](NC)[C@H]3O)[C@H](N)C[C@@H]2N)O[C@H](CO)[C@@H](O)[C@@H]1O [2'-N-Ethylgentamicin X2]
Bacillus subtilis
  MIC: 3 µg/mL (≈ 5.88 µM)
[2]
  MIC: > 25 µg/mL
[3]
  MIC: > 25 µg/mL
[4]
  MIC: > 25 µg/mL
[5]
  MIC: > 25 µg/mL
Proteus mirabilis
  MIC: > 25 µg/mL
Providence
  MIC: > 25 µg/mL
[6]
  MIC: > 25 µg/mL
Salmonella typhimurium
  MIC: 3 µg/mL (≈ 5.88 µM)
Serratia marcessans
  MIC: > 25 µg/mL
Staphylococcus aureus
  MIC: 3 to 7.5 µg/mL (≈ 5.88 to 14.7 µM)
Trichomonas Vaginalis; 24 hr.
  IC99: < 10 µg/mL
  MBC: 10 µg/mL (≈ 19.6 µM)
Trichomonas Vaginalis; 48 hr.
  IC99: < 2.5 µg/mL
  MBC: 2.5 µg/mL (≈ 4.9 µM)

## CN[C@@H]1[C@@H](O)[C@@H](O[C@@H]2[C@@H](O)[C@H](O)[C@@H](N)C[C@H]2N)OC[C@]1(C)O [Garamine, 0-3-deoxy-4-C-methyl-3-(methylamino)-β-L-arabinopyranosyl-(1→6)-2-deoxy-D-streptamine]
pKa of garamine
  pKa: 8.5
